According to patent US20090149472A1, “SALTS OF SUBSTITUTTED PYRAZOLINE COMPOUNDS, THEIR PREPARATION AND USE AND MEDICAMENTS” (Laboratorios Del Dr. Esteve, S.A., priority 2005, published 2009):
Like-named read-outs stand apart in the source and are kept apart here.

Legend:
[1] = target: CB1-Receptor (Homo sapiens, UniProt P21554); assay: CB1 receptor binding, radioligand [3H]-SR141716A (Table Ia)
[2] = tested on: male NMRI mice; assay: Mouse tetrad model, agonistic effect; type: in vivo; parameters: key to Agonistic effect D: Sedation: % of sedation = mean score (0–3 scale) / 3 × 100; Agonistic effect A: Hot-Plate test / Agonistic effect B: Hypothermia / Agonistic effect C: Catalepsy: unit not given here; conditions: 5 mg/kg i.v.
Text: (§1) Substances with affinity for cannabinoid receptors are known to produce a wide range of pharmacological effects. It is also known that intravenous administration of a substance with affinity for cannabinoid receptors in mice produces analgesia, hypothermia, sedation and catalepsy. Individually, none of these effects can be considered as proof that a tested substance has affinity for cannabinoid-receptors, since all of these effects are common for various classes of centrally active agents. However, substances, which show all of these effects, i.e. substances that are active in this so-called tetrad model are considered to have affinity for the cannabinoid receptors.
(§2) The tetrad model is described, for example, in the publication of A. C. Howlett et al, International Union of Pharmacology XXVII. Classification of Cannabinoid Receptors, Pharmacol Rev 54, 161-202, 2002 and David R. Compton et al., “In-vivo Characterization of a Specific Cannabinoid Receptor Antagonist (SR141716A):Inhibition of Tetrahydrocannbinol-induced Responses and Apparent Agonist Activity”, J. Pharmacol. Exp. Ther. 277, 2, 586-594, 1996. The corresponding parts of the description are hereby incorporated by reference.
(§3) Male NMRI mice with a weight of 20-30 g (Harlan, Barcelona, Spain) are used in all of the following experiments.
(§4) Before testing in the behavioral procedures given below, mice are acclimatized to the experimental setting. Pre-Treatment control values are determined for analgesia hot plate latency (in seconds), rectal temperature, sedation and catalepsy.
In order to determine the agonistic activity of the substance to be tested, the mice are injected intravenously with the substance to be tested or the vehicle alone. 15 minutes after injection, latency in hot plate analgesia is measured. Rectal temperature, sedation and catalepsy are measured 20 minutes after injection.
(§5) The hot plate analgesia is determined according to the method described in Woolfe D. et al. “The evaluation of analgesic action of pethidine hydrochloride (Demerol)”, J. Pharmacol. Exp. Ther. 80, 300-307, 1944. The respective description is hereby incorporated by reference and forms part of the present disclosure.
(§6) The mice are placed on a hot plate (Harvard Analgesimeter) at 55±0.5° C. until they show a painful sensation by licking their paws or jumping and the time for these sensations to occur is recorded. This reading is considered the basal value (B). The maximum time limit the mice are allowed to remain on the hot plate in absence of any painful response is 40 seconds in order to prevent skin damage. This period is called the cut-off time (PC).
(§7) Fifteen minutes after the administration of the substance to be tested, the mice are again placed on the hot plate and the afore described procedure is repeated. This period is called the post-treatment reading (PT).
(§8) The degree of analgesia is calculated from the formula:
(§9) % MPE of Analgesia=(PT−B)/(PC−B)×100
(§10) Sedation and ataxia is determined according to the method described in Desmet L. K. C. et al. “Anticonvulsive properties of Cinarizine and Flunarizine in Rats and Mice”, Arzneim.-Forsch. (Frug Res) 25, 9, 1975. The respective description is hereby incorporated by reference and forms part of the present disclosure.
(§11) The chosen scoring system is
(§12) 0: no ataxia; 1: doubtful; 2: obvious calmness and quiet; 3 pronounced ataxia; prior to as well as after treatment.
(§13) The percentage of sedation is determined according to the formula:
(§14) % of sedation=arithmetic mean/3×100
(§15) Hypothermia is determined according to the method described in David R. Compton et al. “In-vivo Characterization of a Specific Cannabinoid Receptor Antagonist (SR141716A) Inhibition of Tetrahydrocannbinol-induced Responses and Apparent Agonist Activity”, J. Pharmacol Exp Ther. 277, 2, 586-594, 1996. The respective description is hereby incorporated by reference and forms part of the present disclosure. […]

[3] = target: T1, transfected human CB1 receptor (Homo sapiens, UniProt P21554); assay: In-vitro affinity to CB1 receptor, radioligand [3H]-CP55940; type: binding
T1 construct: purchased Receptor Biology, Inc
Method: (§16) The in-vitro determination of the affinity of the inventive substituted pyrazoline compounds to CB1/CB2-Rezeptors is carried out as described in the publication of Ruth A. Ross, Heather C. Brockie et al., “Agonist-inverse agonist characterization at CB1 and CB2 cannabinoid receptors of L-759633, L759656 and AM630”, British Journal of Pharmacology, 126, 665-672, (1999), whereby the transfected human CB1 and CB2 receptors of Receptor Biology, Inc. are used. The radioligand used for both receptors is [^3H]-CP55940. The respective parts of the description is hereby incorporated by reference and forms part of the present disclosure.
(§17) The affinity of the inventive substituted pyrazoline compounds to CB1/CB2 receptors was determined as described above.

[4] = tested on: rats; assay: In-vivo testing for antiobesic activity; parameters: species or system rat
Method: The in-vivo testing for antiobesic activity of the inventive pyrazoline compounds is carried out as described in the publication of G. Colombo et al., “Appetite Suppression and Weight Loss after the Cannabinoid Antagonist SR 141716”; Life Sciences, 63 (8), 113-117, (1998). The respective part of the description is hereby incorporated by reference and forms part of the present disclosure.
The in-vivo testing for antiobesic activity was carried out as described above, whereby four different groups of 10 rats each were treated as follows:
The second group of rats was treated with the inventive compound N-piperidinyl-5-(4-chlorophenyl)-1-(2,4-dichlorophenyl)-4,5-dihydropyrazole-3-carboxamide according to Example 1. Said compound was administered intraperitoneally to the rats over a period of 14 days in a daily dosis of (10 mg/kg body weight).

[5] = target: T2, transfected human CB2 receptor (Homo sapiens, UniProt P34972); assay: In-vitro affinity to CB2 receptor, radioligand [3H]-CP55940; type: binding
T2 construct: purchased Receptor Biology, Inc
Method: as §16, §17

[6] = tested on: male NMRI mice; assay: Mouse tetrad model, antagonistic effect against Win 55212-2; type: in vivo; parameters: unit not given here; conditions: 5 mg/kg i.v. prior to Win 55212-2 1.25 mg/kg i.v.
Text: as §1, §2, §3, §4
In order to determine the antagonistic activity the identical procedure is used as for the determination of the agonistic effects, but with the difference that the substance to be evaluated for its antagonistic activity is injected 5 minutes before the intravenous injection of 1.25 mg/kg Win-55,212 a known cannabinoid-receptor agonist.
as §5, §6, §7, §8, §9, §10, §11, §12, §13, §14, §15

[7] = In-vivo antidepressant activity, water despair test
Method: The in-vivo testing for antidepressant activity of the inventive pyrazoline compounds in the water despair test is carried out as described in the publication of E. T. Tzavara et al., “The CB1 receptor antagonist SR141716A selectively increases monoaminergic neurotransmission in the medial prefrontal cortex: implications for therapeutic actons”; Br. J. Pharmacol. 2003, 138(4):544:53. The respective part of the description is hereby incorporated by reference and forms part of the present disclosure.
The in-vivo testing for antidepressant activity of the inventive pyrazoline compounds in the water despair test was carried out as described above.

[8] = read-out: CB1-Receptor Radioligand: [3H]-SR141716A % Inhibition 10^-7 M

Chain of CB1-Receptor (P21554 whole entry): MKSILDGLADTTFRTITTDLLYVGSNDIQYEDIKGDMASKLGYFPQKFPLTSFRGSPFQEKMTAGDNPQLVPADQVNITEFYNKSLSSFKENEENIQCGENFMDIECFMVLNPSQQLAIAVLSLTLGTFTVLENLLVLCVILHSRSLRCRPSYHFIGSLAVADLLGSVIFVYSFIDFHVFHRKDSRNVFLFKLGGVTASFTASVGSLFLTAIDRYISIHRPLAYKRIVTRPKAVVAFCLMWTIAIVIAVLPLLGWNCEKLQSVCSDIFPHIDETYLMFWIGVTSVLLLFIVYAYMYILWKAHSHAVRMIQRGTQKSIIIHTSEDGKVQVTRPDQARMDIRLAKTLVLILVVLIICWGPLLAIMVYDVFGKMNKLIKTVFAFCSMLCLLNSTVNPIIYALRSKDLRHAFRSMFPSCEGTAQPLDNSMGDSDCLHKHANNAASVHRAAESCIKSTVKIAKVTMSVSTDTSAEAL
T2 sequence (P34972 whole entry): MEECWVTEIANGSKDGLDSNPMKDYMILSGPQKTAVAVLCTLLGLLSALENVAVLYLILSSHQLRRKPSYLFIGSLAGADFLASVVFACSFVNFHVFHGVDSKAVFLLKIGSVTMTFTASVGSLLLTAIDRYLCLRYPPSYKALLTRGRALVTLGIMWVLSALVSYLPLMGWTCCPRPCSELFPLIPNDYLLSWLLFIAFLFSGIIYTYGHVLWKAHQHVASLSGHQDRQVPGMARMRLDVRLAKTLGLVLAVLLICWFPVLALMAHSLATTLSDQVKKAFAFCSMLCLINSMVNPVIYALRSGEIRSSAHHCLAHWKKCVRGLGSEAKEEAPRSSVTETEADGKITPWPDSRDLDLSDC
T1 sequence (P21554 whole entry): as the sequence (P21554 whole entry) above

## O=C(Nn1cnnc1)C1=NN(c2ccc(Cl)cc2Cl)C(c2ccc(Cl)cc2)C1 (stereo not drawn)
other
  melting point: 134 to 138 °C

## CN1CCN(NC(=O)C2=NN(c3ccc(Cl)cc3Cl)C(c3ccc(Cl)cc3)C2)CC1.Cl (stereo not drawn)
other
  melting point: 150 to 155 °C

## O=C(NN1CCCCC1)C1=NC(c2ccc(Cl)cc2Cl)[C@@H](c2ccc(Cl)cc2)C1 (stereo partly drawn)
[1]; 10^-7 M, [3H]-SR141716A, read-out: CB1-Receptor Radioligand: [3H]-SR141716A % Inhibition 10^-7 M
  inhibition at 0.1 µM: 82.7%

## O=C(NN1CCCCC1)C1=NN(c2ccc(Cl)cc2Cl)C(c2ccc(Cl)cc2)C1.O=[N+]([O-])O (stereo not drawn)
[1]; 10^-7 M, [3H]-SR141716A
  CB1-Receptor Radioligand: [3H]-SR141716A % Inhibition 10^-7 M: 83.6%

## O=C(NN1CCCCC1)C1=NN(c2ccc(Cl)cc2Cl)[C@@H](c2ccc(Cl)cc2)C1
[1]; [8]
  inhibition at 0.1 µM: 83.3%

## O=C(NN1CCCCC1)C1=NN(c2ccc(Cl)cc2Cl)C(c2ccc(Cl)cc2)C1 (stereo not drawn) [Example 1, N-piperidinyl-5-(4-chlorophenyl)-1-(2,4-dichlorophenyl)-4,5-dihydro-1H-pyrazole-3-carboxamide]
[2]
  Agonistic effect A: Hot-Plate test: 0
  Agonistic effect B: Hypothermia: 0
  Agonistic effect C: Catalepsy: 0
  Agonistic effect D: Sedation: 0
[3]
  Ki: < 0.025 µM
[4]; 10 mg/kg daily intraperitoneally over 14 days (FIG. 1)
  body weight: lowered
[4]; 10 mg/kg daily intraperitoneally over 14 days (FIG. 2)
  food intake: reduction
[4]; after end of 14 days of 10 mg/kg daily i.p. (FIG. 1)
  body weight effect after the treatment is ended: also observed after the treatment is ended
[5]
  Ki: > 1 µM
[6]
  Antagonistic Effect A: Hot-Plate test: 74
  Antagonistic Effect B: Hypothermia: 100
  Antagonistic Effect C: Catalepsy: 100
  Antagonistic Effect D: Sedation: 100
[7]
  immobility time and struggling time: positive effects

## O=C(C1=NN(c2ccc(Cl)cc2Cl)C(c2ccc(Cl)cc2)C1)N1CCCCC1 (stereo not drawn) [Example 5, [5-(4-Chloro-phenyl)-1-(2,4-dichloro-phenyl)-4,5-dihydro-1H-pyrazol-3-yl]-piperidin-1-yl-methanone]
other
  melting point: 105 to 110 °C
[2]
  Agonistic effect A: Hot-Plate test: 0
  Agonistic effect B: Hypothermia: 50
  Agonistic effect C: Catalepsy: 0
  Agonistic effect D: Sedation: 0
[6]
  Antagonistic Effect A: Hot-Plate test: 50
  Antagonistic Effect B: Hypothermia: 40
  Antagonistic Effect C: Catalepsy: 20
  Antagonistic Effect D: Sedation: 20

## O=C(NN1CCCCC1)C1=NN(c2ccc(Cl)cc2Cl)C(c2ccc(Cl)cc2)C1 (stereo not drawn) [drawing 82]
[1]; read-out: CB1-Receptor Radioligand: [3H]-SR141716A % Inhibition 10^-7 M, 10^-7 M, [3H]-SR141716A
  inhibition at 0.1 µM: 82.6%

## O=C(NN1CCCCC1)C1=NN(c2ccc(Cl)cc2Cl)C(c2ccc(Cl)cc2)C1 (stereo not drawn) [drawing 84]
[1]; [8]
  inhibition at 0.1 µM: 99.7%
